Data published in ChEMBL document CHEMBL1135341, “Analogue based design of MMP-13 (Collagenase-3) inhibitors” (Bioorg Med Chem Lett, 2002).

Target: Collagenase 3 (Homo sapiens, UniProt P45452)
Assay: Inhibitory activity against recombinant human matrix metalloprotease-13

| IC50 [nM] | SMILES |
| --- | --- |
| 87.1 | COCCOCCC#CCC(NS(=O)(=O)c1ccc(-c2ccc(OC)cc2)cc1)C(=O)O (configuration not stated) |
| 89.1 | O=C(O)C(CC#Cc1ccccc1)NS(=O)(=O)c1ccc(C#Cc2ccccc2)cc1 (configuration not stated) |
